Results: ChEMBL document CHEMBL5523703, “Modulators for palmitoylation of proteins and small molecules” (Eur J Med Chem, 2024)

Columns and labels:
[1] = target: Serine palmitoyltransferase 3 (Homo sapiens, UniProt Q9NUV7); assay: Inhibition of SPTLC3 (unknown origin)
[2] = target: T1, Membrane-bound ghrelin O-acyltransferase MBOAT4 (Homo sapiens, UniProt Q96T53); assay: Inhibition of GOAT (unknown origin)
T1 sequence (Q96T53 whole entry): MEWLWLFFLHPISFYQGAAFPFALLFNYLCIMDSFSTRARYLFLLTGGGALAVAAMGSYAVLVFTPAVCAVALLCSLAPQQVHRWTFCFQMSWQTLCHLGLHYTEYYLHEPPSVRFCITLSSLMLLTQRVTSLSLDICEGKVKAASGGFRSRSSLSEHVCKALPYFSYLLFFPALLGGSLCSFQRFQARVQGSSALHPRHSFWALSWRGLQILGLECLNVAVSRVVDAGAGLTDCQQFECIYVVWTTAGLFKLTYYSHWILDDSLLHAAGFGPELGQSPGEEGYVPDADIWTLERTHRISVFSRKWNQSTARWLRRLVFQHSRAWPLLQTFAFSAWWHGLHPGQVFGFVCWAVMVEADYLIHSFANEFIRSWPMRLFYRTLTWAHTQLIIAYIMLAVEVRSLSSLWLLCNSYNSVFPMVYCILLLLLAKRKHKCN

[3] = target: Acyl-protein thioesterase 2 (Homo sapiens, UniProt O95372); assay: Inhibition of APT2 (unknown origin)
[4] = Inhibition of SPT (unknown origin); design: species or system Homo sapiens
[5] = Inhibition of Wnt/beta-catenin signalling in HEK293 cells assessed as reduction in luciferase activity incubated for 24 hrs by TOPFlash luciferase reporter assay; assay type: cell-based; details: Homo sapiens, HEK293, 24 h
[6] = species: Homo sapiens; assay: Inhibition of ZDHHC (unknown origin) at 20 uM relative to control
[7] = Inhibition of Wnt/beta-catenin signalling in Wnt3a stimulated HEK293 cells assessed as reduction in luciferase activity incubated for 24 hrs by TOPFlash luciferase reporter assay; assay type: cell-based; details: Homo sapiens, HEK293, 24 h
[8] = target: T2, Phosphatidylserine lipase ABHD16A (Homo sapiens, UniProt O95870); assay: Inhibition of recombinant human ABHD16A expressed in HEK293T cells incubated for 1 hr by fluorescence based analysis; assay type: cell-based
T2 sequence (O95870 whole entry): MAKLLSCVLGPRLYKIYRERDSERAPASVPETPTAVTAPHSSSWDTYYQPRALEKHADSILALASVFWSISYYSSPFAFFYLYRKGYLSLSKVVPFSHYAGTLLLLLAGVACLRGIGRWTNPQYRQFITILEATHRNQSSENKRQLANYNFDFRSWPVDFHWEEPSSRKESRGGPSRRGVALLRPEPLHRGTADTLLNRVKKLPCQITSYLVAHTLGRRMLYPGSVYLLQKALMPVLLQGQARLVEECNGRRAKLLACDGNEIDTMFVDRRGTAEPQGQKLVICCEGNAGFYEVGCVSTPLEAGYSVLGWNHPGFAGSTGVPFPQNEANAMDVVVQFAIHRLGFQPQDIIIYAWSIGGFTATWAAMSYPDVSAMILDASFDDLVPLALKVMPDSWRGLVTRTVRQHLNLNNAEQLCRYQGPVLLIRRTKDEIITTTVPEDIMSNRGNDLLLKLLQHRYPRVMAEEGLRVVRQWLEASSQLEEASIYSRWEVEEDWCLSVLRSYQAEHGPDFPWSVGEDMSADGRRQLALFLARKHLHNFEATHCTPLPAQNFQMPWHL

[9] = target: T3, Palmitoyl-protein thioesterase ABHD10, mitochondrial (Homo sapiens, UniProt Q9NUJ1); assay: Inhibition of ABHD10 (unknown origin)
T3 sequence (Q9NUJ1 whole entry): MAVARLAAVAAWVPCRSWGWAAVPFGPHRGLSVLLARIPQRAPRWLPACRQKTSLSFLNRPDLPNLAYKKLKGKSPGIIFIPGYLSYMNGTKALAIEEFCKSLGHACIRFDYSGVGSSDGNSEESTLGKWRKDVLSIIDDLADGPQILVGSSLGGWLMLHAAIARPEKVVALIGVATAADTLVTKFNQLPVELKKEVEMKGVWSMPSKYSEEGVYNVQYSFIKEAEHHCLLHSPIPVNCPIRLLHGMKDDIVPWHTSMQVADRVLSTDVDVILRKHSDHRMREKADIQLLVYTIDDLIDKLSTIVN

[10] = cells; details: Homo sapiens, HEK-293T, 24 h
[11] = target: T4, Membrane-bound ghrelin O-acyltransferase MBOAT4 (Mus musculus, UniProt P0C7A3); assay: Inhibition of N-terminal His-tagged mouse GOAT expressed in baculovirus infected insect cells
T4 sequence (P0C7A3 whole entry): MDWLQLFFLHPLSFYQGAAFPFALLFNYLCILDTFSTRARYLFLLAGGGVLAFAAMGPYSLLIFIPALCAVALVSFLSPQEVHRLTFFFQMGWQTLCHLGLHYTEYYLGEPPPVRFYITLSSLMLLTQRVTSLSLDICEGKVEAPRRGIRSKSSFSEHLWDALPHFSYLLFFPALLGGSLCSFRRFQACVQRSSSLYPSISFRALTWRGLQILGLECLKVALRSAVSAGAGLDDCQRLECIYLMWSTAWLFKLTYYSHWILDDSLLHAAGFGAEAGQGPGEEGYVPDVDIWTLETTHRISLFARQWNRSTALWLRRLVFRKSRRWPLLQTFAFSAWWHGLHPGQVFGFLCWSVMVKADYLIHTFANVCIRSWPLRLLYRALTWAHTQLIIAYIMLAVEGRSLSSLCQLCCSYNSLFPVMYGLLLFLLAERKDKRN

[12] = target: T5, Carnitine O-palmitoyltransferase 1, muscle isoform (Homo sapiens, UniProt Q92523); assay: Inhibition of CPT1B (unknown origin) in KB cells; assay type: cell-based
T5 sequence (Q92523 whole entry): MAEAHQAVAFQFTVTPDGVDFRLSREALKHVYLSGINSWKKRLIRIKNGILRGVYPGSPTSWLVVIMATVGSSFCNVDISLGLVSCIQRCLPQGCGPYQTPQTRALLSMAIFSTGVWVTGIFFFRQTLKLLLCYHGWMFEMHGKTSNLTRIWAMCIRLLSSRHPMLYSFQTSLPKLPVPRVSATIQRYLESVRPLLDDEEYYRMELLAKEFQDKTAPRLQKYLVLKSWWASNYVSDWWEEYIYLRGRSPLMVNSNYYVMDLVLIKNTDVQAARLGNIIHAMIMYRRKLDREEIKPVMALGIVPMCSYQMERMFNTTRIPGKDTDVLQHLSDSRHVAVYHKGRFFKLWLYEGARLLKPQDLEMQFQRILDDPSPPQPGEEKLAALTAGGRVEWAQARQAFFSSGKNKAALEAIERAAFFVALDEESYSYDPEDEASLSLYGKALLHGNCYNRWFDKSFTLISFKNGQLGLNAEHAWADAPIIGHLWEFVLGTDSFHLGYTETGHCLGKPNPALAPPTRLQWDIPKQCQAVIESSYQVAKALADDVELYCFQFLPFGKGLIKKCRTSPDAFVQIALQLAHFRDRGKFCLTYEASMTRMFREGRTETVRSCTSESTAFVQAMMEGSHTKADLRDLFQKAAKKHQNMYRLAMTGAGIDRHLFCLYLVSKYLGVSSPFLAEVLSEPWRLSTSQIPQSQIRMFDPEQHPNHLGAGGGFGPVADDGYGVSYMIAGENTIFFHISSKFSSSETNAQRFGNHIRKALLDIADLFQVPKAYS

[13] = target: Palmitoyltransferase ZDHHC7 (Homo sapiens, UniProt Q9NXF8); assay: Inhibition of ZDHHC7 (unknown origin)
Sequence of Palmitoyltransferase ZDHHC7 (Q9NXF8 whole entry): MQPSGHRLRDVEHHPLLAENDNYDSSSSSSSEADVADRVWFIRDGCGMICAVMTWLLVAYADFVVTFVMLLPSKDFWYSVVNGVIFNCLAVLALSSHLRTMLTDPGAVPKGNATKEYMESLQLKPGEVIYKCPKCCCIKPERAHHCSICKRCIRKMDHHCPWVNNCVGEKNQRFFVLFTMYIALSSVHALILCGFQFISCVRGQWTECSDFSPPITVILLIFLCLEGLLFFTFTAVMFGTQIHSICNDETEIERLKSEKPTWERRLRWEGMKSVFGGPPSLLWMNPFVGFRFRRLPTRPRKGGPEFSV

Sequence of Acyl-protein thioesterase 2 (O95372 whole entry): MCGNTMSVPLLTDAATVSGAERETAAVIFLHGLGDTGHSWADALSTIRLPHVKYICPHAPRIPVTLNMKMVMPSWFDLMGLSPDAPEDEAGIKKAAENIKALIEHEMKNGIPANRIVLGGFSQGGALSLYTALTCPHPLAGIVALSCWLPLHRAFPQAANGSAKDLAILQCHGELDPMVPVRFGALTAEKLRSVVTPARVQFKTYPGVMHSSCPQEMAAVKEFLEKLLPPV
Sequence of Serine palmitoyltransferase 3 (Q9NUV7 whole entry): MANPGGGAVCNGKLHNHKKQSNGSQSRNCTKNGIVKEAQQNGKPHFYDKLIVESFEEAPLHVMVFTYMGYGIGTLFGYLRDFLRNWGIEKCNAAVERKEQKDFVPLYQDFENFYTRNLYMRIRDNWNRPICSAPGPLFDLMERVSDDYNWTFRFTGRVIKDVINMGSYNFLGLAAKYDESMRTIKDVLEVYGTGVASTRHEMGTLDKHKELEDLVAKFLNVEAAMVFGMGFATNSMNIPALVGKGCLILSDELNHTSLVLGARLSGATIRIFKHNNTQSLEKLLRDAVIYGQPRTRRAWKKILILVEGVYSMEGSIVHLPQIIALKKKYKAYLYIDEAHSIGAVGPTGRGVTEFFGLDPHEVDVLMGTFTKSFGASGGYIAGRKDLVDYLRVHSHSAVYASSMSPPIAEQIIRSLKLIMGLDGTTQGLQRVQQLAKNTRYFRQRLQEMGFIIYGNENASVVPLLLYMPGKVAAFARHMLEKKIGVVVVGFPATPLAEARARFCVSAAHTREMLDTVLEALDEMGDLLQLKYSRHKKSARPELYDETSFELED

Compound: COc1ccc(C(=O)N2CC[C@H](NC(=O)c3ccccc3OC(F)(F)F)c3c2cnn3CCCCCNC(=O)CCC2=[N+]3C(=Cc4c(C)cc(C)n4[B-]3(F)F)C=C2)cc1OC
- IC50 [1]: 0.8 nM

Compound: Cc1nc(N)c(CCC2CCN(C(=O)[C@H](C)NC(=O)c3ccnn3C)CC2)c(Cl)n1
- IC50 [2]: 60 nM

Compound: C#CCCCCCCCC[C@@H]1C(=O)O[C@H]1CCc1ccc(OC)c(OC)c1
- IC50 [3]: 23.7 nM

Compound: C#CCCCN(C)CCCS(=O)(=O)CCCC[C@@H]1C(=O)O[C@H]1CCCCCCCCCC
- IC50 [3]: 64.4 nM

Compound: CCCCCC[C@@H](O)CCCCCCCCC[C@H](CO)C(=O)O
- IC50 [4]: 24 nM

Compound: CCCCCC[C@@H](O)CCCCCC/C=C/[C@H](O)[C@@H](O)[C@H](O)[C@H](N)C(=O)O
- IC50 [4]: 20 nM

Compound: CCCCCC[C@@H](O)CCCCCC/C=C/[C@H](OC(C)=O)[C@@H](O)[C@H](O)[C@H](N)C(=O)O
- IC50 [4]: 100 nM

Compound: CCOc1ccc(NC(=O)CSc2nnc(-c3ccncc3)n2-c2ccccc2)cc1
- IC50 [5]: 90 nM

Compound: C=CC(=O)N(C)CCCCCCCCCCCCCC
- inhibition [6]: 67.3%

Compound: O=S(=O)(c1ccc2oc(-c3cccnc3)nc2c1)c1ccc2oc(-c3cccnc3)nc2c1
- IC50 [5]: 16 nM

Compound: Cc1nc(N)c2c(CCc3ccc(C(=O)O)cc3)coc2n1
- IC50 [2]: 170 nM

Compound: O=C(Cn1cc(I)c(=O)c(I)c1)Nc1ccc(-c2ccccc2)cn1
- IC50 [7]: 20 nM

Compound: Cc1ccc2nc(NC(=O)CSc3nc4c(c(=O)n3C)SC(C)C4)sc2c1 (stereo unspecified)
- IC50 [5]: 15 nM

Compound: COc1nn(-c2ccc(F)cc2)c(=O)o1
- IC50 [8]: 30 nM

Compound: COc1ccc([C@@]23Oc4cc(OC)cc(OC)c4[C@]2(O)[C@@H]2OC(=O)[C@@H]2[C@H]3c2ccccc2)cc1
- IC50 [9]: 100 nM

Compound: CC(C)CCCC(=O)CCCCCCC(=O)CCN(O)C(=O)[C@@H](N)CO
- IC50 [4]: 21 nM

Compound: CCc1cc(=O)oc2c(C)c(OCC(=O)Nc3ccc(N4CCCCC4)cc3)ccc12
- IC50 [5]: 710 nM

Compound: CC[C@@]1(c2cccc(C)c2)C(=O)N(C(=O)OC)N1C(=O)OC
- IC50 [9]: 210 nM

Compound: N#CCC(=O)NCCc1ccc(OC(=O)c2cccc(Oc3ccccc3)c2)cc1
- inhibition [6]: 71.3%

Compound: COc1ccc(C(=O)N2CC[C@H](NC(=O)c3ccccc3Cl)c3c2cnn3C(C)C)cc1OC
- IC50 [1]: 4 nM

Compound: Cn1c(=O)c2c(ncn2CC(=O)Nc2ccc(-c3ccccc3)nn2)n(C)c1=O [ETC-159]
- IC50 [10]: 2.9 nM

Compound: CC(C)Cc1c(C#N)c(N)nc(SCC(=O)c2ccc(-c3ccccc3)cc2)c1C#N
- IC50 [5]: 10 nM

Compound: CC[C@@]1(c2ccc(C)cc2)C(=O)N(C(=O)OC(C)C)N1C(=O)OC(C)C
- IC50 [9]: 30 nM

Compound: Cc1ccc2nc(NC(=O)CSc3nc4c(c(=O)n3-c3ccccc3)SCC4)sc2c1
- IC50 [5]: 28 nM

Compound: CCCCCCCC(=O)NC[C@H](NC(=O)[C@H](CO)NC(=O)CN)C(=O)N[C@@H](Cc1ccccc1)C(=O)N[C@@H](CC(C)C)C(=O)N[C@@H](CO)C(=O)N1CCC[C@H]1C(=O)N[C@@H](CCC(=O)O)C(=O)N[C@@H](Cc1cnc[nH]1)C(=O)N[C@@H](CCC(N)=O)C(=O)N[C@@H](CCCCN)C(=O)N[C@@H](C)C(=O)N[C@@H](CCC(N)=O)C(=O)N[C@@H](CCC(N)=O)C(=O)N[C@@H](CCCNC(=N)N)C(=O)N[C@@H](CCCCN)C(=O)N[C@@H](CCC(=O)O)C(=O)N[C@@H](CO)C(=O)N[C@@H](CCCCN)C(=O)N[C@@H](CCCCN)C(=O)N1CCC[C@H]1C(=O)N1CCC[C@H]1C(=O)N[C@@H](C)C(=O)N[C@@H](CCCCN)C(=O)N[C@@H](CC(C)C)C(=O)N[C@@H](CCC(N)=O)C(=O)N1CCC[C@H]1C(=O)N[C@@H](CCCNC(=N)N)C(=O)O
- IC50 [11]: 200 nM

Compound: CCCCCC[C@@H](O)CCCCCCCC[C@@H](O)[C@H](N)C(=O)O
- IC50 [4]: 224 nM

Compound: CCCCCCCCCC[C@@H]1C(=O)O[C@H]1CCc1ccc(OC)c(OC)c1 [PALMOSTATIN B]
- IC50 [3]: 19.6 nM

Compound: CCCCCCCCCCCCCC1OC(=O)/C1=C\CCCCC(N)=O (stereo unspecified)
- IC50 [8]: 200 nM

Compound: Cc1cc(-c2ncc(CC(=O)Nc3ccc(-c4cnccn4)cn3)cc2C)ccn1 [WNT-974]
- IC50 [10]: 0.2 nM

Compound: O=C(O)C(=O)c1ccc(OCCOc2ccc3ccccc3c2)s1
- IC50 [12]: 16000 nM

Compound: NC(=O)CCCC/C=C1\C(=O)OC1CCc1ccccc1 (stereo unspecified)
- IC50 [8]: ≥ 10000 nM

Compound: CCCCCCCCCC[C@@H]1OC(=O)[C@H]1CCCCS(=O)(=O)CCCN(C)C
- IC50 [3]: 36.7 nM

Compound: C#CCCCCCCCC[C@@H]1OC(=O)[C@H]1CCCCS(=O)(=O)CCCN(C)C
- IC50 [3]: 32.4 nM

Compound: CCCCCCN(C(C)=O)C(C(=O)NCc1ccccc1)c1ccc2cc(O)ccc2c1 (stereo unspecified)
- IC50 [11]: 7540 nM

Compound: CCCCCCCCCCCCCCC(Br)C(=O)OC (stereo unspecified)
- IC50 [13]: 38000 nM

Compound: C[C@H](C(=O)Nc1ccc(-c2ccsc2)cc1)n1cnc2c1c(=O)n(C)c(=O)n2C
- IC50 [7]: 0.5 nM

Compound: COc1nn(-c2cccc([N+](=O)[O-])c2)c(=O)o1
- IC50 [8]: 60 nM

Compound: COc1ccc(-n2nc(C(=O)NCC(=O)Nc3nc4ccc(OC)cc4s3)c3ccccc3c2=O)cc1
- IC50 [5]: 58 nM

Compound: CCCCCCCC(C)(O)/C=C/[C@H](NC(=O)OCc1ccccc1)C(=O)OC (stereo partly specified)
- IC50 [2]: 1500 nM

Compound: Cc1c(-c2ccnc(C(F)(F)F)c2)ncn1CC(=O)Nc1ccc(-c2cnccn2)cn1 [ZAMAPORVINT]
- IC50 [10]: 0.064 nM

Compound: CCCCCCCCN(C(C)=O)C(C(=O)NCc1ccccc1)c1ccc2cc(O)ccc2c1 (stereo unspecified)
- IC50 [11]: 13100 nM
